Where “and” joins values, the source holds several entries; their conditions need not be identical. Equal values may be shown once.
What was measured:
[1] = Photochromic property of photochromic laminate made by coating method; format: physicochemical; conditions: for Residual ratio / Color developing density at 23°C: laminate by coating method; for Residual ratio: A96/A0 x 100 after 96 hours accelerated degradation, xenon weather meter X25; for Color developing density at 23°C: absorbance difference after 240 seconds irradiation at the maximum absorption wavelength of the same line
In short: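 Compound at 0.25 mmol per 100 g methacrylate monomer mix, spin-coated 40 µm on a primed thiourethane lens, photocured 90 s under N2, then 110°C for 1 h. λmax and A23 measured after 240 s irradiation at 23°C; τ1/2 is time to half-fade after irradiation stops. Residual ratio A96/A0 after 96 h xenon weathering.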

[2] = Photochromic property of photochromic cured product made by kneading method; format: physicochemical; conditions: for Residual ratio: A96/A0 x 100 after 96 hours accelerated degradation, xenon weather meter X25; for Color developing density at 23°C: absorbance difference after 240 seconds irradiation at the maximum absorption wavelength of the same line
Protocol: The resulting photochromic laminates were evaluated by the below-mentioned methods. • (1) Photochromic property • [1] Maximum absorption wavelength (λmax): This is the maximum absorption wavelength after color development determined by a spectrophotometer manufactured by Otsuka Electronics Co., Ltd. (instantaneous multichannel photo detector MCPD3000) and was used as an index of a color tone upon color development. • [2] Color developing density at 23°C (A23): This is a difference between an absorbance {ε(240)} after irradiation with light at 23°C for 240 seconds and an absorbance ε(0) when not irradiated with light at the maximum absorption wavelength and was used as an index of a color developing density. The higher this value is, the better a photochromic property is. • [3] Color fading half-life at 23°C [τ1/2 (sec).)]: This is a period of time taken by an absorbance at the maximum absorption wavelength of a sample to decrease to 1/2 of {ε(240)-ε(0)} when irradiation is stopped after irradiation with light at 23°C for 240 seconds, and was used as an index of a color fading rate. The shorter this period of time is, the faster the color fading rate is. • [4] Residual ratio (A96/A0 x 100): The resulting photochromic plastic lens was subjected to accelerated degradation for 96 hours using a xenon weather meter X25 manufactured by Suga Test Instruments Co., Ltd. Color developing densities were then evaluated before and after a test, and a color developing density before the test (A0) and a color developing density after the test (A96) were measured. A ratio (A96/A0) was determined as a residual ratio and was used as an index of color development durability. The higher the residual ratio is, the more durable the color development is.
First, the photochromic compound obtained in Example 1, an additive, and a polymerizable compound were mixed to obtain a curable composition. The polymerizable compound was a combination of the following polymerizable monomers: • · 1,3-Bis(isocyanatomethyl)cyclohexane: 36.7 parts by mass • · Pentaerythritol tetrakis(3-mercaptopropionate): 39.4 parts by mass • · Polyoxyethylene polyoxypropylene lauryl ether (WONDERSURF 140 manufactured by AOKI OIL INDUSTRIAL Co., Ltd.): 17.4 parts by mass • · 1-Decanethiol: 2.8 parts by mass • · RX-1 prepared by the method described in Patent Document 14: 3.8 parts by mass
Note that, in the curable composition, the photochromic compound was added in an amount of 0.106 mmol taking a total amount of the polymerizable monomers as 100 g.
The following additives were used: • · Dimethyltin dichloride: 0.05 parts by mass • · Irganox 245: 0.1 parts by mass • · 2-Ethylhexyl […]: 0.6 parts by mass
After the thus-prepared curable composition was thoroughly defoamed, it was poured into a glass mold with a gap of 1 mm and polymerized by casting polymerization. […] After the polymerization, the resulting cured product was removed from the glass mold to obtain a photochromic cured product with a thickness of 1 mm. The resulting photochromic cured product was evaluated in the same manner as for Example 23.
Photochromic cured products were produced using the photochromic compounds shown in Table 4 in the same manner as in Example 50.

Row | Color fading half-life at 23°C [1] [min] | Residual ratio [1] | Color developing density at 23°C [1] | Residual ratio [2] | Color developing density at 23°C [2] | Compound
1 | 2 | 55% and 58% | – | – | – | CCCCC1(CCC)c2ccccc2-c2c1c1c(c3cc(OC)c(N4CCOCC4)cc23)OC(c2ccc(OC)cc2)(c2ccc(OC)cc2)C=C1 (centres unmarked) [Formula (6-2)]
2 | 1.83 | 55% and 57% | – | 63% and 64% | – | CCCC1(CC)c2ccccc2-c2c1c1c(c3cc(OC)c(N4CCOCC4)cc23)OC(c2ccc(OC)cc2)(c2ccc(OC)cc2)C=C1 (centres unmarked) [Formula (14-1)]
3 | – | 53% and 55% | – | 60% and 61% | – | CCCCCCC1(CC)c2ccccc2-c2c1c1c(c3cc(OC)c(N4CCOCC4)cc23)OC(c2ccc(OC)cc2)(c2ccc(OC)cc2)C=C1 (centres unmarked) [Formula (18-1)]
4 | 0.967 | 37% and 41% | 1.29 - and 0.70 - | 40% and 42% | 1.32 - and 0.69 - | CCC1(OC)c2ccccc2-c2c1c1c(c3cc(OC)c(N4CCOCC4)cc23)OC(c2ccc(OC)cc2)(c2ccc(OC)cc2)C=C1 (centres unmarked) [Formula (B), reference compound]

The next lines start with the molecule.

Row | Compound | Color fading half-life at 23°C [1] [min] | Residual ratio [1] | Color developing density at 23°C [1] | Residual ratio [2] | Color developing density at 23°C [2]
5 | CCC1(C)c2ccccc2-c2c1c1c(c3cc(OC)c(N(C)c4ccccc4)cc23)OC(c2ccc(OC)cc2)(c2ccc(OC)cc2)C=C1 (centres unmarked) [Formula (9-1)] | 1.32 | 71% | 1.16 - | 79% | 1.20 -
6 | CCCCCCCCCCCC1(C)c2ccccc2-c2c1c1c(c3cc(OC)c(N4CCOCC4)cc23)OC(c2ccc(OC)cc2)(c2ccc(OC)cc2)C=C1 (centres unmarked) [Formula (19-1)] | – | 47% and 51% | – | 52% and 55% | –
7 | COc1ccc(C2(c3ccc(OC)cc3)C=Cc3c4c(c5cc(N6CCOCC6)c(OC)cc5c3O2)-c2ccccc2C4(C)C)cc1 [Formula (A), reference compound] | – | 47% and 50% | 1.65 - and 0.83 - | 54% and 56% | 1.68 - and 0.85 -

Reference: patent EP4763837A1, “PHOTOCHROMIC COMPOUND, CURABLE COMPOSITION, OPTICAL ARTICLE, LENS, AND EYEGLASSES” (TOKUYAMA CORPORATION, priority 2023, dated 2025)
